The text below walks through data of patent US7723328B2, “Methods of facilitating cell survival using neurotrophin mimetics” (The University of North Carolina at Chapel Hill, priority 2005, dated 2010).

Entries after “also recorded” stand apart in the source; their conditions may differ. Where two headings read alike, the source gives them in different places.

The subject of one series is TrkA-Fc. Put plainly: NGF/TrkA-Fc binding by NGF ELISA. Particulars: up to 10,000 nM compound. The procedure:
(§1) Briefly, 96-well plates were incubated with 0.1 pmol (at 1 nM) of p75/Fc or TrkA/Fc recombinant protein obtained from R&D System (Minneapolis, Minn., United States of America) overnight at 4° C. followed by incubation with blocking buffer for 1 hour at room temperature. […] Plates were then washed five times with Tris-buffered saline (TBS) containing 0.05% Tween-20 and incubated with anti-NGF rabbit polyclonal antibody overnight at 4° C. Following five washes with TBS, wells were incubated for 2.5 hours at room temperature with anti-rabbit IgG HRP conjugate and washed five times. 3,3′,5,5′-tetramethyl-benzidine substrate was added and the optical density measured at 450 nm.

A further series concerns mature oligodendrocytes. The experiment in a line: Oligodendrocyte cell death assay (MBP/TUNEL) with or without proNGF. It is filed as cell-based, rat. The procedure:
Cortical oligondendrocytes from rat pups were prepared as previously described (Yoon et al. (1998) J Neurosci 18, 3273-3281, Harrington, A. W., Kim, J. Y., Yoon, S. O. (2002) J Neurosci 22, 156-166). Cells were treated with recombinant, cleavage-resistant proNGF at 0.05 nM (2.8 ng/ml). Controls were treated with equivalent volumes of proNGF purification buffer containing 350 mM imidazole. 24 hours after treatment, the cells were fixed and processed for MBP and TUNEL staining as previously described (Beattie, M. S. et al. (2002) Neuron 36, 375-386). 200-250 cells were counted per well, for a minimum of 600 cells per experimental condition.

Series [1] relates to E16-17 mouse hippocampal neurons. The experiment in a line: Hippocampal neuron survival (morphology plus MTT conversion). As to conditions: 48 h; counts normalized to 25 ng/ml BDNF or baseline; up to 5 nM. The format is cell-based. The procedure:
(§2) Hippocampal neurons were prepared from E16-17 mouse embryos as previously described (Yang. T. et al. (2003) J Neurosci 23, 3353-3363). […] For studies employing p75^NTR+/+ and p75^NTR−/− neurons, mice carrying a mutation in exon 3 of the p75^NTR gene (Lee, K. F. et al. (1992) Cell 69, 737-749) were bred onto a B6 congenic background (>10 B6 backcrosses).
(§3) After 48 hours in culture, cell survival was assessed as previously described (Longo, F. M., Manthorpe. M., Xie. Y. M., Varon, S. (1997) J Neurosci Res 48, 1-17) using a combination of standard morphological criteria along with visual determination of whether a given cell converted MTT to its blue formazan product. The number of surviving neurons was determined by counting the total number of cells in each well that were both morphologically intact and filed with blue product (Longo F. M., Manthorpe. M., Xie, Y. M., Varon, S. (1997) J Neurosci Res 48, 1-17). For each neurotrophin or compound concentration, duplicate wells were counted and the resulting values averaged. Activity of each compound was confirmed by blinded counts. Counts were normalized to survival achieved with 25 ng/ml BDNF or to baseline survival. Fitting of dose-responsive curves was performed with Sigmaplot obtained from SYSTAT Software Inc. (Richmond, Calif., United States of America).

Another series relates to E17 hippocampal neurons. The experiment in a line: Aβ-induced death of hippocampal neurons. The format is cell-based. Particulars: Aβ1-42 10 μM; NGF at 100 pg/ml. The procedure:
Using previously well established protocols, Aβ was preincubated for 3 days in water to allow formation of oligomers. E17 hippocampal neurons were incubated for 5 days to allow for maturation prior to addition of Aβ with test compounds.

The test system of series [2] is hippocampal neurons. The experiment in a line: Hippocampal neuron survival with p75NTR antisera (antibody inhibition). It is filed as cell-based, mouse. As to conditions: antiserum 1:100, 48 h. As to the method: as §2, §3
(§4) For all studies applying signaling inhibitors, p75^NTR antibodies or p75^NTR−/− neurons, survival was assessed at 48 hours.

The target of series [3] is T1, p75^NTR-expressing 3T3 cells (Homo sapiens, UniProt P08138).
T1 construct: host or cells: NIH3T3 fibroblasts
T1 sequence (P08138 29-427): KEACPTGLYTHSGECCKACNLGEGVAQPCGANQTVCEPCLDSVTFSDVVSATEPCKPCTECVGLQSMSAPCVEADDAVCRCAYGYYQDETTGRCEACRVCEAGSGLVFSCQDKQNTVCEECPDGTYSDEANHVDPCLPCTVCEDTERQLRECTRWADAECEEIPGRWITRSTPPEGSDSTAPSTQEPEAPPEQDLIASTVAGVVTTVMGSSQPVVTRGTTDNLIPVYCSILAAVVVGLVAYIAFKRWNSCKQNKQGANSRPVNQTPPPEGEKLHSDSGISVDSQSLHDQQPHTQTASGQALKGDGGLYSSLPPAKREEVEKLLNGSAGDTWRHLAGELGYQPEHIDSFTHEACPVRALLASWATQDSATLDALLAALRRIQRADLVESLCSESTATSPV
Put plainly: p75NTR antibody (Ab 9651) competition on 3T3 cells, western blot. The format is binding. Particulars: 100 nM compound, 90 min, 4° C. As to the method:
NIH3T3 fibroblasts expressing either null vector or p75^NTR (Huang, C. S. et al. (1999) J Biol Chem 274, 36707-36714) were obtained from Dr. William Mobley (Stanford University, Calif., United States of America). Cells were grown in monolayers, harvested in PBS with 2 mM EDTA, pelleted, and resuspended in ice-cold DMEM HEPES with 1 mg/ml BSA. 6-9×10^6 cells from one confluent 6-well plate were used for each experimental point.
For binding analysis, p75^NTR antibody (1:100) was allowed to bind in the presence or absence of 100 nM p75-binding compounds for 90 minutes at 4° C. with gentle rotation, followed by four washes in PBS. The final cell pellet was resuspended in lysis buffer.
Western blots were performed as described above. To detect the presence of p75^NTR antibody, blots were probed with horseradish peroxidase-linked goat anti-rabbit IgG obtained from Amersham/Pharmacia Biotech (Piscataway, N.J., United States of America). Signals were detected by the ECL chemiluminescence system obtained from Amersham Biosciences (Piscataway, […]., United States of America). To control for variation in protein loading, the blot was stripped and reprobed with β-actin monoclonal antibody obtained from Sigma (St. Louis, Mo., United States of America).
(In general: In western blotting, separated proteins are transferred to a membrane and probed.)

The test system of a further series is NFκB-p65. The experiment in a line: NFκB-p65 phosphorylation western blot in hippocampal cultures. It is filed as cell-based, mouse. As to conditions: compounds 20 nM, BDNF/NGF 50 ng/ml; 10 and 30 min. The procedure: (§5) For assays of Trk, AKT, NFκB, and ERK activation, hippocampal neurons derived from E16-17 mice were cultured in poly-L-lysine coated six-well plates (Corning, Inc., Corning, N.Y., United States of America) in DMEM containing 10% FBS, followed by incubation in serum-free DMEM for 2 hours before addition of neurotrophins or compounds. At the indicated time points, neurons were harvested in lysis buffer consisting of: 20 mM Tris, pH 8.0, 137 mM NaCl, 1% Igepal CA-630, 10% glycerol, 1 mM PMSF, 10 μg/ml aprotinin, 1 μg/ml leupeptin, 500 μM orthovanadate (Zhou, J., Valletta, J. S., Grimes, M. L., Mobley, W. C. (1995) J Neurochem 65, 1146-1156).
(§6) Lysates were centrifuged, the supernatant collected, and protein concentrations determined using the BCA Protein Assay Reagent obtained from Pierce (Rockford, Ill., United States of America). Western blots were performed as described previously (Yang, T. et al. (2003) J Neurosci 23, 3353-3363). Western blot signals were detected using the ECL Chemiluminescence System obtained by Amersham (Piscataway, N.J., United States of America) (Yang, T. et al. (2003) J Neurosci 23, 3353-3363).

The test system of a further series is ERK42. Put plainly: ERK42 activation western blot in hippocampal cultures. The format is cell-based, mouse. As to conditions: compounds 20 nM, BDNF/NGF 50 ng/ml; 10 and 30 min. As to the method:
as §5, §6

In another series the target is T2, TrkB (Mus musculus, UniProt P15209).
T2 construct: endogenous in cells; host or cells: primary hippocampal neurons from E16-17 mouse embryos
Put plainly: Trk Y490 phosphorylation western blot in hippocampal neuron cultures. It is filed as cell-based. Particulars: 10 or 30 minutes. As to the method:
as §5, §6

A further series has as its system AKT. The experiment in a line: AKT activation western blot in hippocampal cultures. It is filed as cell-based, mouse. Particulars: p75NTR−/− neurons, versus culture medium alone. The procedure: as §5, §6
In series [4] the target is T3, p75^NTR-Fc (Homo sapiens, UniProt P08138).
T3 construct: purchased R&D Systems
Particulars: read-out: KD for NGF, previous reports; Nykjaer et al. 2004; cited from earlier work.

In another series the test system is p75^NTR−/− cells. The experiment in a line: Survival of p75NTR+/+ versus p75NTR-/- hippocampal neurons. The format is cell-based, mouse. As to conditions: neurotrophins 1.8 nM, compounds 5 nM. The procedure:
as §2, §3, §4

The subject of series [5] is hippocampal neurons. The experiment in a line: Hippocampal neuron survival with signaling pathway inhibitors. It is filed as cell-based, mouse. As to conditions: PD98059 50 μM; BDNF/NGF 25 ng/ml, compounds 5 nM; 48 h. As to the method: as §2, §3, §4
Series [6] deals with T3, p75^NTR-Fc. The experiment in a line: NGF/p75NTR-Fc binding by NGF ELISA, Gaddum/Schild fit. Particulars: read-out: KD for NGF; in the absence of compounds. As to the method: as §1
A regression analysis of NGF-p75^NTR binding in the presence of the p75-binding compounds was performed. The data was fit using the Nonlinear Regression module of Sigmaplot, to a modification of the Gaddum/Schild equation (adapted from Motulsky, H. J., and Christopoulos. A. (2003) A Practical Guide to Curve Fitting, 2nd edn. (San Diego, Calif., GraphPad Software, Inc.): […]

T3 sequence (P08138 with tags, fused parts or gaps limits assumed): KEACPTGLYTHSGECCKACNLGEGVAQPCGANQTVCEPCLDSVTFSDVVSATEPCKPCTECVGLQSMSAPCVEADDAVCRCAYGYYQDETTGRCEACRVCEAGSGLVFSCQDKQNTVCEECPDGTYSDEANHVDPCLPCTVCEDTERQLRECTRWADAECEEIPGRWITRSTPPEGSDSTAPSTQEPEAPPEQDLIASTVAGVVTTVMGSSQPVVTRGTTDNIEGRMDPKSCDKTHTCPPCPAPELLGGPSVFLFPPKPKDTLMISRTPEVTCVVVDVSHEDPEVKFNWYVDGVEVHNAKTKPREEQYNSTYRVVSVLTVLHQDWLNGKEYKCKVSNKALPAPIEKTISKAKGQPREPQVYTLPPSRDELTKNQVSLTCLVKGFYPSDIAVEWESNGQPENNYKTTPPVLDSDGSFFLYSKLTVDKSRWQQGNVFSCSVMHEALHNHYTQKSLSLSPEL
T2 sequence (P15209 32-821): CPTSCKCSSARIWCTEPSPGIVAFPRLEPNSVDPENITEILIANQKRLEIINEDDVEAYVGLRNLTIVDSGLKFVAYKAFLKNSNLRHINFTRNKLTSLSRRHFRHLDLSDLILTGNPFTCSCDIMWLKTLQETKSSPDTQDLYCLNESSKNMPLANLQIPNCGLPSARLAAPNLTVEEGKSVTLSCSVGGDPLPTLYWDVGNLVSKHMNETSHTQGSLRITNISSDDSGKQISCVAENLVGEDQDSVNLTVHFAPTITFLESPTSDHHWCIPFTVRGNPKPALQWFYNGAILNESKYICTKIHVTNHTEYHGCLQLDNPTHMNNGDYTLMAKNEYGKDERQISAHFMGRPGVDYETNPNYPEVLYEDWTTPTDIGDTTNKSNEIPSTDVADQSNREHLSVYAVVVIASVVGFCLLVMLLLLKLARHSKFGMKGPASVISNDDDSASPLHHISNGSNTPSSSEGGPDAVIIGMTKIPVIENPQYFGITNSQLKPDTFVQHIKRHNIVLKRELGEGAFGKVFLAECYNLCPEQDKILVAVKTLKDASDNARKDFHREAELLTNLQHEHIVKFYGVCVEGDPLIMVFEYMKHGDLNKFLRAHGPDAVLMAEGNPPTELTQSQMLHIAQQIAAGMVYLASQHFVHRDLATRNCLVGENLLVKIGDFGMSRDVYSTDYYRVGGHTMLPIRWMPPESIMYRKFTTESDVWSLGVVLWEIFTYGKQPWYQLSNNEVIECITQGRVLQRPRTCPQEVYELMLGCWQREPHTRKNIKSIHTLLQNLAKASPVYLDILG

`CCN(CC)CCCNC(=O)Cn1cnc2c1c(=O)n(C)c(=O)n2C` [Compound 5]: the “effect on NGF binding to TrkA-Fc” value in the series on TrkA-Fc was “no significant effect up to 10,000 nM”. The “oligodendrocyte survival with proNGF at 10 nM compound” value in the series with mature oligodendrocytes (10 nM compound, proNGF present) was “appeared to decrease survival”. Moreover, the “promotion of oligodendrocyte cell death by compound alone” value with mature oligodendrocytes (absence of proNGF, 24 h) is “did not promote cell death”. Also, in [1], the “neurotrophic activity (neuron survival response)” value was “little or no neurotrophic activity; also recorded: no response”. Further, the “protection against Aβ1-42-induced death” value in the series on E17 hippocampal neurons is given as “failed to block”. The “survival versus CM in the presence of Ab 9651” value in the series on hippocampal neurons [2] was “not significant”. In series [3], the “displacement of anti-p75NTR Ab 9651” value was “no effect”. Besides, the NFκB-p65 activation result in the series on NFκB-p65 is reported as “did not induce”.
For orientation: Kd means the equilibrium constant for the complex coming apart. Take “NGF: Recombinant human NGF obtained from Invitrogen”: the ERK42 activation result in the series on ERK42 is “greater with BDNF and NGF treatment than with the p75-binding compounds”. Besides, the “TrkB activation (Trk Y490 phosphorylation)” value with TrkB is on record as “no activation was detected”. For the same molecule, the “AKT activation in p75NTR−/− cells” value with AKT is “completely absent”. For the same molecule, the Kd with p75^NTR-Fc [4] is approximately 1 nM; in the series with p75^NTR-Fc [6] it was 0.8 to 0.9 nM. For the same molecule, the “effect of p75NTR-deficiency on promotion of neuron survival by the substance” value with p75^NTR−/− cells was “lack of response; also recorded: completely inhibits”. Also, in the series on hippocampal neurons [5], the “effect of PD98059 (ERK inhibitor) on survival promoted by the substance” value was “small but significant effect; also recorded: small effects”. Also, in the series with E17 hippocampal neurons, the “protection against Aβ1-42-induced death” value was “fails to protect; also recorded: did not protect”.
